Consider 35 compounds from patent publication US9556139B2, “6-substituted phenoxychroman carboxylic acid derivatives” (Array BioPharma Inc., priority 2008, dated 2017).

Read-outs that look alike come from different tables or passages of the source.

In this assay the target is human DP2 (Homo sapiens (Human), UniProt Q9Y5Y4). Put plainly: DP-2 Binding Inhibition Assay (3H-PGD2 binding to membranes of K562 cells expressing DP2). Particulars: inhibition of 3H-PGD2 binding. Summed up: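 Membranes from K562 stably expressing DP2, incubated 60 min at room temperature with ³H-PGD2 and compound in Tris pH 7.4 buffer with 0.1% BSA, 1% HSA or 4% HSA; filtration read-out. Nonspecific binding: 1 μM unlabeled PGD2 or 5 μM known antagonist. EC50 from 4-parameter logistic fit.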

[1] abbreviates: read-out: EC50 (nM) 4% HSA, 4% HSA.
[2] abbreviates: read-out: EC50 (Nm) 1% HSA, 1% HSA.

human DP2, sequence (Q9Y5Y4 whole entry): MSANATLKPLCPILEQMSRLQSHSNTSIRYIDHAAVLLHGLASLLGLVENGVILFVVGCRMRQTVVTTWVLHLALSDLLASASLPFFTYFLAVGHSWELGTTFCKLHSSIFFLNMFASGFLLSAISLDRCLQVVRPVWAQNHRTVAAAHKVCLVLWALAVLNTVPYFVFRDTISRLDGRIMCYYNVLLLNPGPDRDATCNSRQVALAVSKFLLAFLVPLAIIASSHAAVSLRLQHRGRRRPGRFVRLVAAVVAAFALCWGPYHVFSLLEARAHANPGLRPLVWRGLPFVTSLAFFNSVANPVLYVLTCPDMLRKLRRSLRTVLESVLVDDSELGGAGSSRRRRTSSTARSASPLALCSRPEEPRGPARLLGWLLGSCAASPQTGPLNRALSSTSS

Turning to `O=C(NCCc1cc(Cl)ccc1Cl)c1ccc(Oc2cc3c(cc2Cl)C(C(=O)O)CCO3)cc1` (stereo not drawn) [Example 103, Sodium 6-chloro-7-(4-(2,5-dichlorophenethylcarbamoyl)phenoxy)chroman-4-carboxylate], the EC50 under setting [1] was 392 nM.

For `Cc1ccc(-c2cccc(NC(=O)c3ccc(Oc4cc5c(cc4C#N)C(C(=O)O)CCO5)cc3)c2)cc1` (stereo not drawn) [Example 107, 6-Cyano-7-(4-(4′-methylbiphenyl-3-ylcarbamoyl)phenoxy)chroman-4-carboxylic acid], under setting [1], the EC50 came to 115 nM.

For `Cc1cccc(-c2cccc(NC(=O)c3ccc(Oc4cc5c(cc4C#N)C(C(=O)O)CCO5)cc3)c2)c1` (stereo not drawn) [Example 108, 6-Cyano-7-(4-(3′-methylbiphenyl-3-ylcarbamoyl)phenoxy)chroman-4-carboxylic acid], the EC50 under setting [1] was 69.3 nM.

Consider `Cc1cccc(-c2cccc(NC(=O)c3ccc(Oc4cc5c(cc4C#N)C(C(=O)O)CCO5)cc3)c2)c1C` (stereo not drawn) [Example 109, 6-Cyano-7-(4-(2′,3′-dimethylbiphenyl-3-ylcarbamoyl)phenoxy)chroman-4-carboxylic acid], for which the EC50 under setting [1] was determined as 104 nM.

Consider `O=C(NCCc1ccc2c(c1)OCO2)c1ccc(Oc2cc3c(cc2Cl)C(C(=O)O)CCO3)cc1` (stereo not drawn) [Example 110, Sodium 7-(4-(2-(benzo[d][1,3]dioxol-5-yl)ethylcarbamoyl)phenoxy)-6-chlorochroman-4-carboxylate], for which, under setting [1], the EC50 came out at 607 nM.

As for `O=C(NCC1Cc2ccccc2C1)c1ccc(Oc2cc3c(cc2Cl)C(C(=O)O)CCO3)cc1` (stereo not drawn) [Example 111, Sodium 6-chloro-7-(4-((2,3-dihydro-1H-inden-2-yl)methylcarbamoyl)phenoxy)chroman-4-carboxylate], under setting [1], the EC50 amounted to 174 nM.

Take `Cc1ccc(SCCNC(=O)c2ccc(Oc3cc4c(cc3Cl)C(C(=O)O)CCO4)cc2)cc1` (stereo not drawn) [Example 112, Sodium 6-chloro-7-(4-(2-(p-tolylthio)ethylcarbamoyl)phenoxy)chroman-4-carboxylate]: the EC50 under setting [1] was 4190 nM.

With `O=C(NCCSc1ccc(Cl)cc1)c1ccc(Oc2cc3c(cc2Cl)C(C(=O)O)CCO3)cc1` (stereo not drawn) [Example 113, Sodium 6-chloro-7-(4-(2-(4-chlorophenylthio)ethylcarbamoyl)phenoxy)chroman-4-carboxylate], under setting [1], the EC50 was determined as 2380 nM.

Turning to `CCOc1ccccc1CCNC(=O)c1ccc(Oc2cc3c(cc2Cl)C(C(=O)O)CCO3)cc1` (stereo not drawn) [Example 114, Sodium 6-chloro-7-(4-(2-ethoxyphenethylcarbamoyl)phenoxy)chroman-4-carboxylate], the EC50 under setting [1] was 91 nM.

With `O=C(NCCOc1ccccc1Cl)c1ccc(Oc2cc3c(cc2Cl)C(C(=O)O)CCO3)cc1` (stereo not drawn) [Example 115, Sodium 6-chloro-7-(4-(2-(2-chlorophenoxyl)ethylcarbamoyl)phenoxy)chroman-4-carboxylate], the concentration giving a half-maximal response (EC50) under setting [1] came out at 2440 nM.

Turning to `CC(C)(C)Oc1ccccc1CCNC(=O)c1ccc(Oc2cc3c(cc2Cl)C(C(=O)O)CCO3)cc1` (stereo not drawn) [Example 116, Sodium 7-(4-(2-tert-butoxyphenethylcarbamoyl)phenoxy)-6-chlorochroman-4-carboxylate], the EC50 under setting [1] worked out at 304 nM.

As for `CSc1ccccc1CCNC(=O)c1ccc(Oc2cc3c(cc2Cl)C(C(=O)O)CCO3)cc1` (stereo not drawn) [Example 117, Sodium 6-chloro-7-(4-(2-(methylthio)phenethylcarbamoyl)phenoxy)chroman-4-carboxylate], the EC50 under setting [1] was found to be 246 nM.

Consider `CSc1ccc(CCNC(=O)c2ccc(Oc3cc4c(cc3Cl)C(C(=O)O)CCO4)cc2)cc1` (stereo not drawn) [Example 118, Sodium 6-chloro-7-(4-(4-(methylthio)phenethylcarbamoyl)phenoxy)chroman-4-carboxylate], for which, under setting [1], the EC50 came out at 426 nM.

Take `O=C(NC1CCN(c2cccc(Cl)c2)C1)c1ccc(Oc2cc3c(cc2Cl)C(C(=O)O)CCO3)cc1` (stereo not drawn) [Example 119, Sodium 6-chloro-7-(4-(1-(3-chlorophenyl)pyrrolidin-3-ylcarbamoyl)phenoxy)chroman-4-carboxylate]: the concentration for a half-maximal effect (EC50) under setting [1] stood at 206 nM.

With `O=C(NC1CCN(c2cccc(Cl)c2)CC1)c1ccc(Oc2cc3c(cc2Cl)C(C(=O)O)CCO3)cc1` (stereo not drawn) [Example 120, Sodium 6-chloro-7-(4-(1-(3-chlorophenyl)piperidin-4-ylcarbamoyl)phenoxy)chroman-4-carboxylate], the EC50 under setting [1] was determined as 371 nM.

Consider `O=C(NC1CN(c2cccc(C(F)(F)F)c2)C1)c1ccc(Oc2cc3c(cc2Cl)C(C(=O)O)CCO3)cc1` (stereo not drawn) [Example 121, Sodium 6-chloro-7-(4-(1-(3-(trifluoromethyl)phenyl)azetidin-3-ylcarbamoyl)phenoxy)chroman-4-carboxylate], for which, under setting [1], the EC50 is 4320 nM.

On to `O=C(NC1CCN(c2cccc(C(F)(F)F)c2)C1)c1ccc(Oc2cc3c(cc2Cl)C(C(=O)O)CCO3)cc1` (stereo not drawn) [Example 122, Sodium 6-chloro-7-(4-(1-(3-(trifluoromethyl)phenyl)pyrrolidin-3-ylcarbamoyl)phenoxy)chroman-4-carboxylate], for which, under setting [1], the EC50 was 242 nM.

Regarding `O=C(NC1CCN(c2cccc(C(F)(F)F)c2)CC1)c1ccc(Oc2cc3c(cc2Cl)C(C(=O)O)CCO3)cc1` (stereo not drawn) [Example 123, Sodium 6-chloro-7-(4-(1-(3-(trifluoromethyl)phenyl)piperidin-4-ylcarbamoyl)phenoxy)chroman-4-carboxylate], the EC50 under setting [1] came out at 259 nM.

Regarding `O=C(NC1CCN(c2ccc(Cl)cc2Cl)CC1)c1ccc(Oc2cc3c(cc2Cl)C(C(=O)O)CCO3)cc1` (stereo not drawn) [Example 124, Sodium 6-chloro-7-(4-(1-(2,4-dichlorophenyl)piperidin-4-ylcarbamoyl)phenoxy)chroman-4-carboxylate], the EC50 under setting [1] is 841 nM.

Regarding `O=C(N[C@H]1CCCN(c2cccc(Cl)c2)C1)c1ccc(Oc2cc3c(cc2Cl)C(C(=O)O)CCO3)cc1` (stereo partly drawn) [Example 125, Sodium 6-chloro-7-(4-((S)-1-(3-chlorophenyl)piperidin-3-ylcarbamoyl)phenoxy)chroman-4-carboxylate], under setting [1], the 50% effective concentration (EC50) was 421 nM.

On to `N#Cc1cc2c(cc1Oc1ccc(C(=O)NCC3Cc4ccccc4C3)cc1)OCCC2C(=O)O` (stereo not drawn) [Example 126, 6-Cyano-7-(4-((2,3-dihydro-1H-inden-2-yl)methylcarbamoyl)phenoxy)chroman-4-carboxylic acid], for which the EC50 under setting [1] is 179 nM.

Regarding `CC(C)(C)C1CCC(NC(=O)c2ccc(Oc3cc4c(cc3C#N)C(C(=O)O)CCO4)cc2)CC1` (stereo not drawn) [Example 127, 7-(4-(4-tert-Butylcyclohexylcarbamoyl)phenoxy)-6-cyanochroman-4-carboxylic acid], the 50% effective concentration (EC50) under setting [1] was found to be 270 nM.

On to `O=C(NCCc1ccc(Cl)cc1)c1ccc(Oc2ccc3c(c2)OCCC3C(=O)O)cc1` (stereo not drawn) [Example 128, 7-(4-(4-chlorophenyethylcarbamoyl)phenoxy)chroman-4-carboxylic acid], for which the EC50 is, setting by setting: under setting [2], 108 nM; under setting [1], 980 nM.

`Cc1cc(C(=O)NCCc2ccc(Cl)cc2)ccc1Oc1cc2c(cc1C#N)C(C(=O)O)CCO2` (stereo not drawn) [Example 129, 7-(4-(4-Chlorophenethylcarbamoyl)-2-methylphenoxy)-6-cyanochroman-4-carboxylic acid]: under setting [2], the EC50 was found to be 21.9 nM.

Take `C[C@@H](CNC(=O)c1ccc(Oc2cc3c(cc2C#N)C(C(=O)O)CCO3)cc1)c1ccccc1` (stereo partly drawn) [Example 130, 6-Cyano-7-(4-((R)-2-phenylpropylcarbamoyl)phenoxy)chroman-4-carboxylic acid]: under setting [2], the EC50 turned out to be 25.7 nM.

On to `C[C@H](CNC(=O)c1ccc(Oc2cc3c(cc2C#N)C(C(=O)O)CCO3)cc1)c1ccccc1` (stereo partly drawn) [Example 131, 6-Cyano-7-(4-((S)-2-phenylpropylcarbamoyl)phenoxy)chroman-4-carboxylic acid], for which the concentration giving a half-maximal response (EC50) under setting [2] stood at 59.3 nM.

In the case of `CC(Cc1ccc(Cl)cc1)NC(=O)c1ccc(Oc2cc3c(cc2C#N)C(C(=O)O)CCO3)cc1` (stereo not drawn) [Example 132, 7-(4-(1-(4-Chlorophenyl)propan-2-ylcarbamoyl)phenoxy)-6-cyanochroman-4-carboxylic acid], the concentration giving a half-maximal response (EC50) under setting [2] worked out at 37.4 nM.

For `COc1cc(CCNC(=O)c2ccc(Oc3cc4c(cc3C#N)C(C(=O)O)CCO4)cc2)ccc1Cl` (stereo not drawn) [Example 133, 7-(4-(4-Chloro-3-methoxyphenethylcarbamoyl)phenoxy)-6-cyanochroman-4-carboxylic acid], the EC50 under setting [1] amounted to 625 nM.

Turning to `CC(C)(C)c1cccc(NC(=O)c2ccc(Oc3cc4c(cc3C#N)C(C(=O)O)CCO4)cc2)c1` (stereo not drawn) [Example 134, 7-(4-(3-tert-Butylphenylcarbamoyl)phenoxy)-6-cyanochroman-4-carboxylic acid], the EC50 under setting [1] turned out to be 112 nM.

For the compound `CC(C)Oc1cccc(NC(=O)c2ccc(Oc3cc4c(cc3C#N)C(C(=O)O)CCO4)cc2)c1` (stereo not drawn) [Example 135, 6-Cyano-7-(4-(3-isopropoxyphenylcarbamoyl)phenoxy)chroman-4-carboxylic acid], the EC50 under setting [1] is 205 nM.

As to `O=C(NCCc1ccc(Cl)c(Cl)c1)c1ccc(Oc2cc3c(cc2Cl)C(C(=O)O)CCO3)cc1` (stereo not drawn) [Example 138, Sodium 6-chloro-7-(4-(3,4-dichlorophenethylcarbamoyl)phenoxy)chroman-4-carboxylate], the concentration giving a half-maximal response (EC50) under setting [1] was 239 nM.

For the compound `O=C(NCCc1cccc(Cl)c1Cl)c1ccc(Oc2cc3c(cc2Cl)C(C(=O)O)CCO3)cc1` (stereo not drawn) [Example 139, Sodium 6-chloro-7-(4-(2,3-dichlorophenethylcarbamoyl)phenoxy)chroman-4-carboxylate], the concentration for a half-maximal effect (EC50) under setting [1] is 226 nM.

For the compound `COc1ccc(CCNC(=O)c2ccc(Oc3cc4c(cc3Cl)C(C(=O)O)CCO4)cc2)cc1` (stereo not drawn) [Example 140, Sodium 6-chloro-7-(4-(4-methoxyphenethylcarbamoyl)phenoxy)chroman-4-carboxylate], the EC50 under setting [1] is 498 nM.

Take `COc1ccc(CCNC(=O)c2ccc(Oc3cc4c(cc3Cl)C(C(=O)O)CCO4)cc2)cc1OC` (stereo not drawn) [Example 141, Sodium 6-chloro-7-(4-(3,4-dimethoxyphenethylcarbamoyl)phenoxy)chroman-4-carboxylate]: under setting [1], the EC50 stood at 1000 nM.

As to `CC(C)(C)c1ccc(CCNC(=O)c2ccc(Oc3cc4c(cc3Cl)C(C(=O)O)CCO4)cc2)cc1` (stereo not drawn) [Example 142, Sodium 7-(4-(4-tert-butylphenethylcarbamoyl)phenoxy)-6-chlorochroman-4-carboxylate], under setting [1], the EC50 is 140 nM.

As usually defined, the EC50 is the concentration that produces a half-maximal response.
